Results on one molecule are retold here after publication PMC2234460 (The Journal of General Physiology, 2002).

Broadly, the Kd is a measure of binding affinity in units of concentration. Higher therefore signals lower affinity.

For the experiment, the target named is Shaker K+ channel (Shaker B) (Drosophila melanogaster, UniProt P08510, DEL6-46/F425G/K253C/T449F). Briefly: two-electrode voltage clamp in Xenopus oocytes. In kind it is cell-based. (In general: Two-electrode voltage clamp holds a large cell at a set potential and records current.)

In turn, `CC[N+](CC)(CC)CC` [TEA] came in with a Kd of 200 µM.
